Laboratory results taken from US20150353495A1 (PORTOLA PHARMACEUTICALS, INC., priority 2010, published 2015).
Where a name gives a salt, the structure may show the parent alone.

Assays:
[1] = target: T1, JAK2 (Homo sapiens, UniProt O60674); assay: Z'-LYTE kinase assay JAK2; assay type: biochemical
T1 construct: 5 μl of catalytic domain recombinant Kinase enzyme+Tyr peptide substrate (Invitrogen, CA); purchased Invitrogen
In short: (§1)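 In duplicate wells, each test molecule (1% final DMSO) is incubated with recombinant kinase catalytic domain, Tyr6 peptide substrate and ATP for one hour at room temperature; a site-specific protease is then added for another hour before fluorescence reading.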

[2] = tested on: JAK1/3 signaling to STAT6 in Ramos B cells; assay: IL4 stimulation of JAK1/3 signaling to STAT6 in Ramos B cells (pSTAT6 Y641, FACS); assay type: cell-based; details: Homo sapiens; for inhibition at 0.2 µM: 0.2 uM compound, read-out: IL-4/STAT6 in Ramos Percent Inhibition at 0.2 uM; for inhibition at 1 µM: 1.0 uM compound, read-out: IL-4/STAT6 in Ramos Percent Inhibition at 1.0 uM
Experimental: IL4 stimulation of JAK1/3 signaling to STATE in Ramos B cells:
As an alternative strategy to measure effect of JAK3 inhibitors on JAK1/3 dependent cytokine signaling pathways, IL4 stimulation of the Ramos Burkett's B cell line is used. IL4 engages a receptor consisting of the IL4 receptor alpha chain and the common gamma chain. […] Ramos B cells are suspended in tissue culture media containing 10% fetal calf serum at 10×10̂6 cells/ml. 100 μl aliquots are pre-treated for 1 hour with various concentrations of compound, and then stimulated for 15 minutes with 15 ng IL4. The signaling reaction is terminated by fixing in 2% paraformaldehyde for 10 minutes at room temperature. Fixed cells are then washed and permeablized by suspension in 100% methanol at −80° C. Following overnight incubation at 4° C., cells are washed and resuspended in PBS containing 0.5% bovine serum albumin containing pSTAT6 Y641-PE conjugated antibody. After 1 hour incubation, cells are washed and the extent of STAT6 phosphorlyation in Ramos cells is measured by FACS analysis.

[3] = target: T2, JAK1 (Homo sapiens, UniProt P23458); assay: Z'-LYTE kinase assay JAK1; assay type: biochemical
T2 construct: 5 μl of catalytic domain recombinant Kinase enzyme+Tyr peptide substrate (Invitrogen, CA); purchased Invitrogen
T2 sequence (P23458 875-1153 limits assumed): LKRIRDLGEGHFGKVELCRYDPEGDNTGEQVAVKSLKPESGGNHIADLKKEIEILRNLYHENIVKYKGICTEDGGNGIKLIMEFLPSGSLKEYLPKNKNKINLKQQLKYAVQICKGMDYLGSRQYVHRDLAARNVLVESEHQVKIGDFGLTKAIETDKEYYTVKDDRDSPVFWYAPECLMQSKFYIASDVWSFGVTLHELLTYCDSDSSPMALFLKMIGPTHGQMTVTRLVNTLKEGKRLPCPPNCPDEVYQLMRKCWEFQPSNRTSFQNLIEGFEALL
In short: as §1

[4] = target: T3, JAK3 (Homo sapiens, UniProt P52333); assay: Z'-LYTE kinase assay JAK3; assay type: biochemical
T3 construct: 5 μl of catalytic domain recombinant Kinase enzyme+Tyr peptide substrate (Invitrogen, CA); purchased Invitrogen
T3 sequence (P52333 822-1111 limits assumed): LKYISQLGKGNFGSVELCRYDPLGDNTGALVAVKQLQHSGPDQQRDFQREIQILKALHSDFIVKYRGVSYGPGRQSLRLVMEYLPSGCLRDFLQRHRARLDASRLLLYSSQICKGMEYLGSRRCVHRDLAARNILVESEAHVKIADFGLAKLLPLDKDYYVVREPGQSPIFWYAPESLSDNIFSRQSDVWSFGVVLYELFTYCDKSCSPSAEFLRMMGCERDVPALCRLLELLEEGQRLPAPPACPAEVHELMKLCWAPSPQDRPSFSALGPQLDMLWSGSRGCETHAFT
In short: as §1

[5] = target: T4, TYK2 (Homo sapiens, UniProt P29597); assay: Z'-LYTE kinase assay TYK2; assay type: biochemical
T4 construct: 5 μl of catalytic domain recombinant Kinase enzyme+Tyr peptide substrate (Invitrogen, CA); purchased Invitrogen
T4 sequence (P29597 897-1176 limits assumed): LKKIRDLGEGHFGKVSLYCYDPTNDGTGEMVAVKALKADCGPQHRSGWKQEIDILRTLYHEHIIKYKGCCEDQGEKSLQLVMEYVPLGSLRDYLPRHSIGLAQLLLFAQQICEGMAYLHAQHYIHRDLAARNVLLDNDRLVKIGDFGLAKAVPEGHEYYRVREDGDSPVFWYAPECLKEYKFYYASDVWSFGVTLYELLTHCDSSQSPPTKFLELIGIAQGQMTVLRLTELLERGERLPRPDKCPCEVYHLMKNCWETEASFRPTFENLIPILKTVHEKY
In short: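 IC50 derived by 4-parameter logistic fit of percent substrate phosphorylation relative to uninhibited wells. Tyr6 peptide phosphorylated by recombinant TYK2 catalytic domain for 1 h at room temperature (1% DMSO), cleaved by development protease 1 h, FRET emission ratio 445/520 nm.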

T1 sequence (O60674 849-1124 limits assumed): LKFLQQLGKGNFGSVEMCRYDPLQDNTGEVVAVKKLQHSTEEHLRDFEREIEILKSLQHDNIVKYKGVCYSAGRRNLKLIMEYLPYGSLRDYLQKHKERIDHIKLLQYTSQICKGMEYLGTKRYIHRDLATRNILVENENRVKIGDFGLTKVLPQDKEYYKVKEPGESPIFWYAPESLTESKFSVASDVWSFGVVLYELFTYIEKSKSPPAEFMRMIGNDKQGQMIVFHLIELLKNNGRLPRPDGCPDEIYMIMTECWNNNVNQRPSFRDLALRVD

Row | Compound | IC50 [1] [nM] | IC50 [3] [nM] | IC50 [4] [nM] | IC50 [5] [nM] | inhibition at 0.2 µM [2] [%] | inhibition at 1 µM [2] [%]
1 | NC(=O)c1cnc(Nc2ccc(OCC(=O)N3CCOCC3)cc2)cc1NCc1ccccc1 [Example 80, 4-(benzylamino)-6-(4-(2-morpholino-2-oxoethoxy)phenylamino)nicotinamide] | 100 to 1000 | > 1000 | 10 to 100 | > 1000 | 23 | 43
2 | CNC(=O)[C@H]1CCCN(c2ccc(Nc3cc(NCc4ccccc4)c(C(N)=O)cn3)cc2)C1 [Example 4, (S)-4-(benzylamino)-6-(4-(3-(methylcarbamoyl)piperidin-1-yl)phenylamino)nicotinamide] | 100 to 1000 | 100 to 1000 | 1 to 10 | 100 to 1000 | 32 | 68
3 | NC(=O)c1cnc(Nc2cccc(N3CCOCC3)c2)cc1NCc1ccccc1 [Example 31, 4-(benzylamino)-6-(3-morpholinophenylamino)nicotinamide] | 100 to 1000 | 100 to 1000 | 1 to 10 | 100 to 1000 | 27 | 50
4 | CN(C)C(=O)c1ccc(Nc2cc(NCc3ccccc3)c(C(N)=O)cn2)cc1 [Example 248, 4-(benzylamino)-6-(4-(dimethylcarbamoyl)phenylamino)nicotinamide] | 100 to 1000 | 100 to 1000 | 1 to 10 | 100 to 1000 | 24 | 50
5 | CNC(=O)[C@@H]1CCCN(c2ccc(Nc3cc(NCc4ccccc4)c(C(N)=O)cn3)cc2)C1 [Example 6, (R)-4-(benzylamino)-6-(4-(3-(methylcarbamoyl)piperidin-1-yl)phenylamino)nicotinamide] | 100 to 1000 | 100 to 1000 | 1 to 10 | 100 to 1000 | 39 | 65
6 | NC(=O)c1cnc(Nc2ccc(N3CCOCC3)cc2)cc1Nc1ccc(N2CCOCC2)cc1 [Example 16, 4,6-bis(4-morpholinophenylamino)nicotinamide] | > 1000 | > 1000 | 10 to 100 | > 1000 | 17 | 46
7 | COCCOc1ccc(Nc2cc(NCc3ccccc3)c(C(N)=O)cn2)cc1 [Example 432, 4-(benzylamino)-6-(4-(2-methoxyethoxyl)phenylamino)nicotinamide] | 100 to 1000 | > 1000 | 10 to 100 | > 1000 | 16 | 17
8 | CC(=O)N1CCC(c2ccc(Nc3cc(NCc4ccccc4F)c(C(N)=O)cn3)cc2)CC1 [Example 115, 6-(4-(1-acetylpiperidin-4-yl)phenylamino)-4-(2-fluorobenzylamino)nicotinamide] | 100 to 1000 | 100 to 1000 | 10 to 100 | 100 to 1000 | 31 | 64
9 | NC(=O)c1cnc(Nc2ccc(C(=O)N3CCOCC3)cc2)cc1NCc1ccccc1 [Example 40, 4-(benzylamino)-6-(4-(morpholine-4-carbonyl)phenylamino)nicotinamide] | 100 to 1000 | 100 to 1000 | 1 to 10 | 100 to 1000 | 46 | 69
10 | NC(=O)c1cnc(Nc2ccc(N3CCCCC3)cc2)cc1NCc1ccccc1F [Example 74, 4-(2-fluorobenzylamino)-6-(4-(piperidin-1-yl)phenylamino)nicotinamide] | 100 to 1000 | > 1000 | 10 to 100 | 100 to 1000 | 21 | 43
11 | CNC(=O)[C@@H]1CCCN(c2ccc(Nc3cc(N[C@H](C)c4ccccc4)c(C(N)=O)cn3)cc2)C1 [Example 8, 6-(4-((R)-3-(methylcarbamoyl)piperidin-1-yl)phenylamino)-4-((R)-1-phenylethylamino)nicotinamide] | 100 to 1000 | 100 to 1000 | 1 to 10 | > 1000 | 8 | 30

Second part, led by results:

Row | IC50 [1] [nM] | IC50 [3] [nM] | IC50 [4] [nM] | IC50 [5] [nM] | Compound | inhibition at 0.2 µM [2] [%] | inhibition at 1 µM [2] [%]
12 | 100 to 1000 | 100 to 1000 | 10 to 100 | 10 to 100 | NC(=O)c1cnc(Nc2ccc(C(=O)N3CCCC3)cc2)cc1NCC1CCCC1 [Example 41, 4-(cyclopentylmethylamino)-6-(4-(pyrrolidine-1-carbonyl)phenylamino)nicotinamide] | 31 | 59
13 | 100 to 1000 | 100 to 1000 | 10 to 100 | > 1000 | NC(=O)c1cnc(Nc2ccc(N3CCCC3=O)c(Cl)c2)cc1NCc1cccc(F)c1 [Example 62, 6-(3-chloro-4-(2-oxopyrrolidin-1-yl)phenylamino)-4-(3-fluorobenzylamino)nicotinamide] | 29 | 42
14 | 10 to 100 | 100 to 1000 | 1 to 10 | 100 to 1000 | CC(=O)N1CCN(c2ccc(Nc3cc(NCc4cccc(Cl)c4)c(C(N)=O)cn3)cc2)CC1 [Example 257, 6-(4-(4-acetylpiperazin-1-yl)phenylamino)-4-(3-chlorobenzylamino)nicotinamide] | 34 | 65
15 | 10 to 100 | 100 to 1000 | 1 to 10 | 100 to 1000 | NC(=O)c1cnc(Nc2ccc(C3CCNCC3)cc2)cc1NCc1cccc(F)c1 [Example 70, 4-(3-fluorobenzylamino)-6-(4-(piperidin-4-yl)phenylamino)nicotinamide] | 23 | 45
16 | 10 to 100 | 100 to 1000 | 10 to 100 | 100 to 1000 | CC(=O)N1CCN(c2ccc(Nc3cc(NCc4ccccc4)c(C(N)=O)cn3)cc2)CC1 [Example 3, 6-(4-(4-acetylpiperazin-1-yl)phenylamino)-4-(benzylamino)nicotinamide] | 22 | 43
17 | 10 to 100 | 100 to 1000 | 1 to 10 | 100 to 1000 | C[N+]1(C)CCC(c2ccc(Nc3cc(NCc4cccc(F)c4)c(C(N)=O)cn3)cc2)CC1 [Example 78, 4-(4-(5-carbamoyl-4-(3-fluorobenzylamino)pyridin-2-ylamino)phenyl)-1,1-dimethylpiperidinium formate] | – | 14
18 | 100 to 1000 | 100 to 1000 | 1 to 10 | 100 to 1000 | NC(=O)c1cnc(Nc2ccc(C3CCN(C4CCCC4)CC3)cc2)cc1NCc1ccccc1F [Example 109, 6-(4-(1-cyclopentylpiperidin-4-yl)phenylamino)-4-(2-fluorobenzylamino)nicotinamide] | 23 | 60
19 | 100 to 1000 | 100 to 1000 | 1 to 10 | > 1000 | NC(=O)c1cnc(Nc2cccc(OCCN3CCOCC3)c2)cc1NCc1cccc(F)c1 [Example 228] | 24 | 48
20 | 10 to 100 | 100 to 1000 | 1 to 10 | 100 to 1000 | CN(C)C(=O)c1ccc(Nc2cc(NCc3cc(F)ccc3F)c(C(N)=O)cn2)cc1 [Example 92, 4-(2,5-difluorobenzylamino)-6-(4-(dimethylcarbamoyl)phenylamino)nicotinamide] | 41 | 67
21 | 10 to 100 | 100 to 1000 | 1 to 10 | 100 to 1000 | NC(=O)c1cnc(Nc2ccc(N3CCOCC3)cc2)cc1NCc1ccccc1F [Example 73, 4-(2-fluorobenzylamino)-6-(4-morpholinophenylamino)nicotinamide] | 23 | 53
22 | 10 to 100 | 100 to 1000 | 1 to 10 | 10 to 100 | CC(=O)N1CCN(c2ccc(Nc3cc(NCC4CCCC4)c(C(N)=O)cn3)cc2)CC1 [Example 245, 6-(4-(4-acetylpiperazin-1-yl)phenylamino)-4-(cyclopentylmethylamino)nicotinamide] | 14 | 38
